Assay results reported in ChEMBL document CHEMBL3638993, “Dihydrofolate reductase inhibitors” (2014).

What was measured:
Dihydrofolate reductase [1] = molecular target: T1, Dihydrofolate reductase (Homo sapiens, UniProt P00374); experiment: (§1) Inhibition Assay: Antibacterial activity as measured by the minimal inhibitory concentrations (MIC) and minimal bactericidal concentrations of compounds are well known (see., e.g., National Committee for Clinical Laboratory Standards 2000 Performance standards for antimicrobial disk susceptibility tests: approved standard, 7th ed. M2-A7, vol. 20, no. 1, Committee for Clinical Laboratory Standards, Wayne, Pa.).
T1 sequence (P00374 whole entry): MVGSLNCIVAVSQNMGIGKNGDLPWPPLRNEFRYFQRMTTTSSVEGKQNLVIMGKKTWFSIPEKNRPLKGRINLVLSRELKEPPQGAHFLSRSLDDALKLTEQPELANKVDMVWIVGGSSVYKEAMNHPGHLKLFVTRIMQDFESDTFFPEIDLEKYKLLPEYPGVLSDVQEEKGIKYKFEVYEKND

Dihydrofolate reductase [2] = molecular target: Dihydrofolate reductase (Staphylococcus aureus, UniProt P0A017); experiment: as §1
Sequence of Dihydrofolate reductase (Staphylococcus aureus, UniProt P0A017) (P0A017 whole entry): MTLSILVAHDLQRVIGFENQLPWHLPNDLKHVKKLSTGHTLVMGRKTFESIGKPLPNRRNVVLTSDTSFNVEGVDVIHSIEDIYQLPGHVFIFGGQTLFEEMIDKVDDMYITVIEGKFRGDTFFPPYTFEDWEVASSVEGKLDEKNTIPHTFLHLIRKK

Structure (SMILES): Cc1c(C(=O)OC(C)(C)C)nc(-c2cccs2)n1-c1ccc2c(N)nc(N)nc2c1
- Ki (Dihydrofolate reductase [1]): 1910 nM
- Ki (Dihydrofolate reductase [2]): 0.2 nM
